According to patent US7293985B2 (priority 1998, dated 2007):
Structures can show the parent of a compound that is named as a salt. Where two headings read alike, the source gives them in different places.

Legend:
[1] = system: Vesicular stomatitis virus (VSV); type: cell-based
physchem [2] = details: buffer
physchem [3] = details: pH 7
[4] = system: murine red blood cells (RBCs); details: mouse, in vivo
Yersinia enterocolitica = type: cell-based
cell-free HIV-IIIB = type: cell-based; details: for Log Kill / Log Titer: no PIC-1, GSH 30 mM
red blood cell membranes = details: 3 mM Glutathione added to PRBCs
Method: The concentration of GSH was calculated based on the absorbance at 412 nm using a Beckman DU20 (Beckman, Irvine, Calif.) single wavelength spectrometer.

[5] = system: Staphylococcus epidermidis; type: cell-based

Q: For `O=S(=O)(O)CCS` [MENSA, mercaptoethanesulfonic acid sodium salt], which “Log Kill” value [1] is on record?
A: 2.3 log

Q: Which results are given for `O=C(CCNc1c2ccccc2nc2ccccc12)OCCN(CCCl)CCCl` [PIC-1, β-alanine, N-(acridin-9-yl), 2-[bis(2-chloroethyl)amino]ethyl ester]?
A: half-life (physchem [2]; pH 2.2): 450 min; half-life (physchem [2]; pH 6): 25 min; half-life (physchem [3]): 32 min

Q: What does the source list for `O=C(CCNc1c2ccccc2nc2ccccc12)NCCN(CCCl)CCCl` [PIC-2, P-alanine, N-(acridin-9-yl), 2-[bis(2-chloroethyl)amino]ethyl amide]?
A: RBC survival compared to control [4]: substantially the same as control; recovery or lifespan of treated RBCs compared to label-only controls [4]: No difference

Q: For `N[C@@H](CS)C(=O)O` [cysteine], which “Log Kill” value (Yersinia enterocolitica) is on record?
A: 0 log

Q: And the “Log Titer” value (Yersinia enterocolitica)?
A: 7.4 log

Q: Which “reduction of HIV infectivity” value (cell-free HIV-IIIB; 30 mM glutathione alone (samples 2 and 4 compared to samples 1 and 3)) does the source give for `N[C@@H](CCC(=O)N[C@@H](CS)C(=O)NCC(=O)O)C(=O)O` [glutathione] here?
A: 0.3 to 0.6 logs

Q: What about the “Log Kill” value (cell-free HIV-IIIB; 12 hour incubation (sample 4)) of the same molecule?
A: 0.6 log

Q: What about the “Log Titer” value (cell-free HIV-IIIB; 12 hour incubation (sample 4)) of the same molecule?
A: 6.4 log

Q: What about the “Log Kill” value (cell-free HIV-IIIB; no incubation (sample 2)) of the same molecule?
A: 0.3 log

Q: And the “Log Titer” value (cell-free HIV-IIIB; no incubation (sample 2))?
A: 6.9 log

Q: And the “Log Kill” value (Yersinia enterocolitica)?
A: 0 log

Q: What about the “Log Titer” value (Yersinia enterocolitica) of the same molecule?
A: 7.4 log

Q: And the reduction of inactivation (Yersinia enterocolitica)?
A: 1 to 2 log kill

Q: And the “Absorption 412 nm Supernatant” value (red blood cell membranes; Time 0 min)?
A: 0.33

Q: What about the “Absorption 412 nm Total” value (red blood cell membranes; Time 0 min) of the same molecule?
A: 0.230

Q: What about the “GSH Concentration Supernatant” value (red blood cell membranes; Time 0 min) of the same molecule?
A: 3.071 mM

Q: And the “GSH Concentration Total” value (red blood cell membranes; Time 0 min)?
A: 5.286 mM

Q: What about the “Absorption 412 nm Supernatant” value (red blood cell membranes; Time 60 min) of the same molecule?
A: 0.318

Q: And the “Absorption 412 nm Total” value (red blood cell membranes; Time 60 min)?
A: 0.227

Q: What about the “GSH Concentration Supernatant” value (red blood cell membranes; Time 60 min) of the same molecule?
A: 2.96 mM

Q: And the “GSH Concentration Total” value (red blood cell membranes; Time 60 min)?
A: 5.217 mM

Q: And the “Absorption 412 nm Supernatant” value (red blood cell membranes; Time 120 min)?
A: 0.312

Q: And the “Absorption 412 nm Total” value (red blood cell membranes; Time 120 min)?
A: 0.231

Q: What about the “GSH Concentration Supernatant” value (red blood cell membranes; Time 120 min) of the same molecule?
A: 2.90 mM

Q: What about the “GSH Concentration Total” value (red blood cell membranes; Time 120 min) of the same molecule?
A: 5.308 mM

Q: And the “Absorption 412 nm Supernatant” value (red blood cell membranes; Time 270 min)?
A: 0.306

Q: What about the “Absorption 412 nm Total” value (red blood cell membranes; Time 270 min) of the same molecule?
A: 0.213

Q: What about the “GSH Concentration Supernatant” value (red blood cell membranes; Time 270 min) of the same molecule?
A: 2.85 mM

Q: What about the “GSH Concentration Total” value (red blood cell membranes; Time 270 min) of the same molecule?
A: 4.898 mM

Q: And the “Absorption 412 nm Supernatant” value (red blood cell membranes; Time 1080 min)?
A: 0.297

Q: And the “Absorption 412 nm Total” value (red blood cell membranes; Time 1080 min)?
A: 0.227

Q: What about the “GSH Concentration Supernatant” value (red blood cell membranes; Time 1080 min) of the same molecule?
A: 2.77 mM

Q: And the “GSH Concentration Total” value (red blood cell membranes; Time 1080 min)?
A: 5.217 mM

Q: What about the “Absorption 412 nm Supernatant” value (red blood cell membranes; Time 1440 min) of the same molecule?
A: 0.296

Q: And the “Absorption 412 nm Total” value (red blood cell membranes; Time 1440 min)?
A: 0.220

Q: And the “GSH Concentration Supernatant” value (red blood cell membranes; Time 1440 min)?
A: 2.76 mM

Q: What about the “GSH Concentration Total” value (red blood cell membranes; Time 1440 min) of the same molecule?
A: 5.058 mM

Q: What about the “recovery or lifespan of treated RBCs compared to label-only controls” value [4] of the same molecule?
A: No difference

Q: And the “Log Kill” value [5]?
A: 0 log

Q: And the “Log Titer” value [5]?
A: 7.5 log
